Columns and labels:
[1] = tested on: MOLT-4; assay type: cell-based; details: 10^−5 molar; for Growth percent: MOLT-4; for Growth percent MOLT-4: Leukemia, 48 hours, SRB
[2] = tested on: SR; assay type: cell-based; details: 10^−5 molar; for Growth percent: SR; for Growth percent SR: Leukemia, 48 hours, SRB
[3] = tested on: A549/ATCC; assay type: cell-based; details: 10^−5 molar; for Growth percent: A549/ATCC; for Growth percent A549/ATCC: Non-small cell lung cancer, 48 hours, SRB
[4] = tested on: HOP-62; assay type: cell-based; details: 10^−5 molar; for Growth percent: HOP-62; for Growth percent HOP-62: Non-small cell lung cancer, 48 hours, SRB
[5] = tested on: HOP-92; assay type: cell-based; details: 10^−5 molar; for Growth percent: HOP-92
[6] = tested on: NCI-H226; assay type: cell-based; details: 10^−5 molar; for Growth percent: NCI-H226; for Growth percent NCI-H226: Non-small cell lung cancer, 48 hours, SRB
[7] = tested on: HCC-2998; assay type: cell-based; details: 10^−5 molar; for Growth percent: HCC-2998; for Growth percent HCC-2998: Colon cancer, 48 hours, SRB
[8] = tested on: HCT-116; assay type: cell-based; details: 10^−5 molar; for Growth percent: HCT-116; for Growth percent HCT-116: Colon cancer, 48 hours, SRB
[9] = tested on: HCT-15; assay type: cell-based; details: 10^−5 molar; for Growth percent: HCT-15; for Growth percent HCT-15: Colon cancer, 48 hours, SRB
[10] = tested on: SF-539; assay type: cell-based; details: 10^−5 molar; for Growth percent: SF-539
[11] = tested on: MDA-MB-435; assay type: cell-based; details: 10^−5 molar; for Growth percent: MDA-MB-435; for Growth percent MDA-MB-435: Melanoma, 48 hours, SRB
[12] = tested on: SK-MEL-2; assay type: cell-based; details: 10^−5 molar; for Growth percent: SK-Mel-2
[13] = tested on: UACC-257; assay type: cell-based; details: 10^−5 molar; for Growth percent: UACC-257; for Growth percent UACC-257: Melanoma, 48 hours, SRB
[14] = tested on: IGROV1; assay type: cell-based; details: 10^−5 molar; for Growth percent: IGROV1; for Growth percent IGROV1: Ovarian cancer, 48 hours, SRB
[15] = tested on: OVCAR-3; assay type: cell-based; details: 10^−5 molar; for Growth percent OVCAR-3: Ovarian cancer, 48 hours, SRB
[16] = tested on: SK-OV-3; assay type: cell-based; details: 10^−5 molar; for Growth percent: SK-OV-3; for Growth percent SK-OV-3: Ovarian cancer, 48 hours, SRB
[17] = tested on: A498; assay type: cell-based; details: 10^−5 molar; for Growth percent: A498; for Growth percent A498: Renal cancer, 48 hours, SRB
[18] = tested on: BT-549; assay type: cell-based; details: 10^−5 molar; for Growth percent: BT-549; for Growth percent BT-549: Breast cancer, 48 hours, SRB
[19] = tested on: OVCAR-4; assay type: cell-based; details: 10^−5 molar; for Growth percent: OVCAR-4; for Growth percent OVCAR-4: Ovarian cancer, 48 hours, SRB
[20] = tested on: CAKI-1; assay type: cell-based; details: 10^−5 molar; for Growth percent: CAKI-1; for Growth percent CAKI-1: Renal cancer, 48 hours, SRB

Row | Compound | Growth percent [1] [%] | Growth percent [2] [%] | Growth percent [3] [%] | Growth percent [4] [%] | Growth percent [5] [%] | Growth percent [6] [%] | Growth percent [7] [%] | Growth percent [8] [%] | Growth percent [9] [%] | Growth percent [10] [%] | Growth percent [11] [%] | Growth percent [12] [%] | Growth percent [13] [%] | Growth percent [14] [%] | Growth percent [16] [%] | Growth percent [17] [%] | Growth percent [18] [%] | melting point [°C] | Growth percent [19] [%] | Growth percent [20] [%] | further results
1 | O=c1c2cc(Cl)ccc2sc2c(NCCN3CCOCC3)nc3ccccc3c12 [Compound N16, 10-Chloro-6-((2-morpholinoethyl)amino)-12H-thiochromeno[2,3-c]quinolin-12-one] | 80.91 | 67.74 | 95.12 | 67.97 | 58.79 | 94.09 | 90.51 | 81.64 | 58.81 | 76.72 | 98.93 | 94.52 | 106.52 | 74.11 | 85.34 | 80.54 | 91.21 | 189 to 190 | – | – | Growth percent ([15]; OVCAR-3): 97.14%
2 | O=c1c2cc(Cl)ccc2sc2c(NCc3ccc4c(c3)OCO4)nc3ccccc3c12 [Compound N27, 6-((Benzo[d][1,3]dioxol-5-ylmethyl)amino)-10-chloro-12H-thiochromeno[2,3-c]quinolin-12-one] | 87.55 | 79.57 | 104.74 | 78.01 | 45.39 | 53.50 | – | 69.98 | 77.41 | 77.12 | 91.64 | 95.57 | – | 67.81 | 82.87 | 75.91 | 111.06 | 205 to 206 | 53.73 | 75.09 | –
3 | O=c1c2cc(Cl)ccc2sc2c(NCCc3ccccc3)nc3ccccc3c12 [Compound N30, 10-Chloro-6-(phenethylamino)-12H-thiochromeno[2,3-c]quinolin-12-one] | 87.33 | 89.88 | 88.44 | 103.19 | 73.02 | 77.00 | 113.77 | 85.77 | 91.82 | 97.86 | 106.06 | 106.33 | 109.29 | – | 102.16 | 83.22 | 106.85 | 151 to 152 | 79.53 | 81.04 | –
4 | CC(C)CC(C)Nc1nc2ccccc2c2c(=O)c3cc(Cl)ccc3sc12 (stereo not drawn) [Compound N13, 10-Chloro-6-((4-methylpentan-2-yl)amino)-12H-thiochromeno[2,3-c]quinolin-12-one] | – | – | – | – | – | – | – | – | – | – | – | – | – | – | – | – | – | 176 to 177 | – | – | Growth percent MOLT-4 [1]: 93.68%; Growth percent SR [2]: 97.29%; Growth percent A549/ATCC [3]: 101.98%; Growth percent HOP-62 [4]: 88.69%; Growth percent NCI-H226 [6]: 87.55%; Growth percent HCC-2998 [7]: 112.26%; Growth percent HCT-116 [8]: 90.30%; Growth percent HCT-15 [9]: 96.97%; Growth percent MDA-MB-435 [11]: 108.08%; Growth percent UACC-257 [13]: 114.40%; Growth percent IGROV1 [14]: 74.77%; Growth percent OVCAR-3 [15]: 115.22%; Growth percent OVCAR-4 [19]: 86.07%; Growth percent SK-OV-3 [16]: 86.70%; Growth percent A498 [17]: 75.01%; Growth percent CAKI-1 [20]: 86.38%; Growth percent BT-549 [18]: 103.61%
5 | O=c1c2cc(Cl)ccc2sc2c(NCCO)nc3ccccc3c12 [Compound N9, 10-Chloro-6-(2-ethanolamino)-12H-thiochromeno[2,3-c]quinolin-12-one] | – | – | – | – | – | – | – | – | – | – | – | – | – | – | – | – | – | – | – | – | Growth percent MOLT-4 [1]: 78.76%; Growth percent SR [2]: 60.44%; Growth percent A549/ATCC [3]: 80.72%; Growth percent HOP-62 [4]: 81.90%; Growth percent HOP-92 ([5]; Non-small cell lung cancer, 48 hours, SRB): 63.17%; Growth percent NCI-H226 [6]: 83.55%; Growth percent HCC-2998 [7]: 101.55%; Growth percent HCT-116 [8]: 93.62%; Growth percent HCT-15 [9]: 78.61%; Growth percent SF-539 ([10]; CNS cancer, 48 hours, SRB): 90.56%; Growth percent MDA-MB-435 [11]: 94.98%; Growth percent SK-MEL-2 ([12]; Melanoma, 48 hours, SRB): 86.80%; Growth percent UACC-257 [13]: 89.33%; Growth percent IGROV1 [14]: 88.51%; Growth percent OVCAR-3 [15]: 103.35%; Growth percent OVCAR-4 [19]: 102.67%; Growth percent SK-OV-3 [16]: 104.57%; Growth percent A498 [17]: 65.78%; Growth percent CAKI-1 [20]: 89.29%; Growth percent BT-549 [18]: 131.62%
6 | COc1ccc(CCNc2nc3ccccc3c3c(=O)c4cc(Cl)ccc4sc23)cc1 [Compound N31, 10-Chloro-6-((4-methoxyphenethyl)amino)-12H-thiochromeno[2,3-c]quinolin-12-one] | 82.02 | 94.13 | 93.49 | 90.07 | 67.57 | 72.39 | 105.27 | 98.46 | 100.67 | 95.67 | 104.49 | 113.12 | 98.66 | 86.73 | 96.11 | 99.56 | 105.24 | 214 to 215 | 79.00 | 85.75 | –
